Source: patent US20080194522A1, “Development of Fluorogenic Substrates For Monoamine Oxidases (Mao-A and Mao-B)” (priority 2004, published 2008)
Entries after “also recorded” stand apart in the source; their conditions may differ. Marks after values point to notes of the source that are not given here.

Assays:
[1] = Photophysical characterization (absorbance, extinction coefficient, emission, quantum yield); type: physicochemical; conditions: for fluorescence, in words: aqueous / phosphate buffer; for ε (M^−1cm^−1) / λcm (nm) / λmax (nm): in water
Protocol: Extinction coefficients were the average of three independent determinations of three different readings from the lowest energy transition at three concentrations. Quantum yields are the average of three determinations of both quantum yield standard 9,10-diphenylanthracene and the synthesized coumarines at 340 nm unless otherwise indicated.
All spectra were recorded in 100 mM sodium phosphate (pH 7.4) unless otherwise indicated. Recorded λmax is that of the longest wavelength transition. Extinction coefficients were reported as the average of at least three independent preparations of the probes. Fluorescence measurements were taken on a Jobin Yvon Fluorolog fluorescence spectrofluorometer (slits 3, HV 750) in 100 mM sodium phosphate pH 7.4 buffer unless otherwise indicated. Quantum yields were measured relative to 9,10 diphenylanthracene in EtOH.4 Reported quantum efficiencies are the average of at least three independent preparations of the probes.
The extinction coefficient ε relates the absorbance of a compound to its concentration as expressed in Beer's law (A=εbc where A is absorbance, b is pathlength, and c is concentration). Extinction coefficients were the average of three independent determinations of three different readings of absorbance from the lowest energy transition at three concentrations. The quantum yield of fluorescence is the fraction of absorbed photons that lead to fluorescence; the number of photons fluoresced divided by the number of photons absorbed. To obtain the quantum yields of the synthesized coumarines their efficiency was compared to standard 9,10-diphenylanthracene at 340 nm in three different determinations. The effect of different solvents on the fluorescence of the compounds was also tested. The compounds were dissolved in methanol, chloroform and toluene and their emissions spectrum was taken.

Chemical stability = conditions: in words
[2] = Fluorescence switch / apparent fluorescence increase, product versus substrate; type: physicochemical
Protocol: Apparent fluorescence increase was calculated by comparing the slopes (arbitrary fluorescence units/μM) of standard curves of chemically synthesized product and substrate concentration versus fluorescence intensity. Calculation of the apparent fluorescence increase is shown below for probe 9, which has a 21000% apparent fluorescence increase in emission intensity at λem=524 nm. The constants fP and fS were calculated from the slope of a line of fluorescence intensity versus concentration of chemically synthesized product indole 10 and substrate 9, respectively. These slopes were obtained from calibration curves of at least five concentrations of 9 and 10 in phosphate buffer (pH 7.4). The preparations of the compounds in mitochondrial assay buffer have negligible effects on fS and fP.

[3] = Solubility in aqueous solution; type: physicochemical; conditions: in words
[4] = Table 3, in water, relative to 9,10-diphenyl anthracene (excited at 365 nm)
[5] = Table 4, in water, relative to coumarin 6 (excited at 420 nm)
[6] = Table 4 indoles, first λmax column
[7] = Table 4, in water, relative to 9,10-diphenyl anthracene (excited at 365 nm)

In the case of Cc1cc(=O)oc2c1ccc1[nH]ccc12 [Probe 36, 4-Methyl-7H-pyrano[2,3-e]indol-2-one], the “fluorescence, in words” value [1] is reported as “very weak fluorescence emission intensity; also recorded: very weakly fluorescent”.
For CCN(CC)c1ccc2c(C)c(-c3ccc(N)c(CCO)c3)c(=O)oc2c1 [VI], the Φ [1, 4] was 0.014, the “ε (M^−1cm^−1)” value ([1]; Table 3 hydroxyl-amine probes) was 15,000 ± 1,000 M^−1cm^−1 and the “λcm (nm)” value ([1]; Table 3 hydroxyl-amine probes) was 499 nm. For the same compound, the “λmax (nm)” value ([1]; Table 3 hydroxyl-amine probes) was 394 nm.
In the case of O=c1ccc2c(ccc3[nH]ccc32)o1 [XIX], the Φ [1, 5] is reported as 0.05 ± 0.02^c, the “ε (M^−1cm^−1)” value ([1]; Table 4 indoles) is reported as 9,400 ± 900 M^−1cm^−1 and the “λmax (nm)” value [1, 6] is reported as 355 nm. The “λmax (nm)” value ([1]; Table 4 indoles, second λmax) was 517 nm.
With Cc1c(-c2ccc(N)c(CCO)c2)c(=O)oc2c3c4c(cc12)CCCN4CCC3 [VII] the Φ [1, 4] was 0.0040, the “ε (M^−1cm^−1)” value ([1]; Table 3 hydroxyl-amine probes) was 21,000 ± 2,000 M^−1cm^−1 and the “λcm (nm)” value ([1]; Table 3 hydroxyl-amine probes) was 499 nm. The “λmax (nm)” value ([1]; Table 3 hydroxyl-amine probes) was 391 nm.
In the case of CCN(CC)c1ccc2cc(-c3ccc4[nH]ccc4c3)c(=O)oc2c1 [XII], the Φ [1, 5] is reported as 0.08 ± 0.02^c, the “ε (M^−1cm^−1)” value ([1]; Table 4 indoles) is reported as 17,000 ± 1,000 M^−1cm^−1 and the “λmax (nm)” value [1, 6] is reported as 401 nm. The “λmax (nm)” value ([1]; Table 4 indoles, second λmax) was 477 nm.
For CC12CC(=O)Oc3ccc(N)c(c31)CCN2 (stereo not drawn) [Probe 125, 7-Amino-3a-methyl-3a,4,5,6-tetrahydro-3H-1-oxa-4-aza-phenalen-2-one], the “fluorescence, in words” value [1] was “non-fluorescent”.
With Cc1cc(=O)oc2ccc(N)c(CCN)c12 [Probe 115, 6-Amino-5-(2-amino-ethyl)-4-methyl-chromen-2-one] the chemical stability (Chemical stability) was “stable when protonated; also recorded: very unstable once deprotonated, or even under neutral condition”.
For O=c1ccc2cc3[nH]ccc3cc2o1 [Probe 59, 1H-Pyrano[2,3-f]indol-6-one], the “fluorescence emission intensity increase, indole/pyrrolocoumarin versus aniline/aminocoumarin” value [2] was “around 2000 fold” and the “fluorescence, in words” value [1] was “quite fluorescent”.
For CCN(CC)c1ccc2c(C)c(-c3ccc(N)c(CCO)c3)c(=O)oc2c1 [Probe 16, 3-[4-Amino-3-(2-hydroxy-ethyl)-phenyl]-7-diethylamino-4-methyl-chromen-2-one], the chemical stability (Chemical stability) was “chemically and photo-physically stable”, the “solubility in aqueous solution” value [3] was “reasonably soluble” and the “fluorescence, in words” value [1] was “much less fluorescent than Probe 17”.
For O=c1oc2c3c4c(cc2cc1-c1ccc2[nH]ccc2c1)CCCN4CCC3 [XIV], the Φ [1, 7] was 0.050 ± 0.005^b, the “λmax (nm)” value [1, 6] was 388 nm and the “λmax (nm)” value ([1]; Table 4 indoles, second λmax) was 501 nm.
In the case of Cc1cc(=O)oc2ccc(N)c(CCO)c12 [Probe 57, 6-Amino-5-(2-hydroxy-ethyl)-4-methyl-chromen-2-one], the chemical stability (Chemical stability) is reported as “chemically and photo-physically stable”, the “solubility in aqueous solution” value [3] is reported as “very soluble” and the “fluorescence, in words” value [1] is reported as “essentially non-fluorescent; also recorded: very weakly fluorescent”.
With Cc1c(-c2ccc(N)c(CCO)c2)c(=O)oc2c3c4c(cc12)CCCN4CCC3 [Probe 23, 9-[4-Amino-3-(2-hydroxy-ethyl)-phenyl]-8-methyl-2,3,5,6-tetrahydro-1H, 4H-11-oxa-3a-aza-benzo[de]anthracen-10-one] the “fluorescence emission intensity increase, indole/pyrrolocoumarin versus aniline/aminocoumarin” value [2] was 6 fold.
With NCCc1ccc2oc(=O)ccc2c1N [V] the “ε (M^−1cm^−1)” value ([1]; Table 2 diamines) was 6,000 ± 100 M^−1cm^−1 and the “λmax (nm)” value ([1]; Table 2 diamines) was 299 nm.
With Nc1c(CCO)ccc2oc(=O)ccc12 [Probe 81, 5-Amino-6-(2-hydroxy-ethyl)-chromen-2-one] the “fluorescence, in words” value [1] was “very weakly fluorescent; also recorded: only weak fluorescence”.
For O=c1oc2c3c4c(cc2c(C(F)(F)F)c1-c1ccc2[nH]ccc2c1)CCCN4CCC3 [Probe 25, 9-(1H-Indol-5-yl)-8-trifluoromethyl-2,3,5,6-tetrahydro-1H, 4H-11-oxa-3a-aza-benzo[de]anthracen-10-one], the “fluorescence quantum yield, in words” value [1] was “rather low quantum yield” and the “fluorescence, in words” value [1] was “distinct red-shift emission”.
With CCN(CC)c1ccc2c(C)c(-c3ccc4cc[nH]c4c3)c(=O)oc2c1 [XIII] the Φ [1, 7] was 0.0103 ± 0.0003^b, the “ε (M^−1cm^−1)” value ([1]; Table 4 indoles) was 20,000 ± 3,000 M^−1cm^−1 and the “λmax (nm)” value [1, 6] was 399 nm. The “λmax (nm)” value ([1]; Table 4 indoles, second λmax) was 484 nm.
For Cc1cc(=O)oc2ccc3[nH]ccc3c12 [XVIII], the Φ ([1]; Table 4, in water, relative to 9,10-diphenyl anthracene (excited at 340 nm)) was 0.18 ± 0.05^a, the “ε (M^−1cm^−1)” value ([1]; Table 4 indoles) was 11,600 ± 800 M^−1cm^−1 and the “λmax (nm)” value [1, 6] was 349 nm. For the same compound, the “λmax (nm)” value ([1]; Table 4 indoles, second λmax) was 492 nm.
For Nc1cc2ccc(=O)oc2cc1CCO [VIII], the “λmax (nm)” value ([1]; Table 3 hydroxyl-amine probes) was 354 nm.
